# Assays:
# [1] = system: female hooded-Lister rats; experiment: Elevated plus maze, Study 1; type: in vivo, rat
# Description: (§1) The elevated plus maze has been widely used as a test for anxiety, as it avoids confounding effects on consummatory responses or sensitivity to shock and it has a certain level of ethological relevance (see Rodgers R J, Cole J C (1994) The elevated plus maze. Pharmacological methods and ethology. In: Cooper, S J, Hendrie C A (eds) Ethology and Psychopharmacology. J. Wiley & Sons Ltd, pp 9-941994).
# (§2) The maze consists of opposite pairs of open and closed arms, and the proportion of exploration carried out on the open arms is taken to be a measure of anxiety. Thus the percentage of open arm entries is increased by known anxiolytic agents and reduced by anxiogenic compounds (Pellow, S, Chopin P, File S E, Briley, M (1985) Validation of open: closed arm entries in an elevated plus maze as a measure of anxiety in the rat. J. Neurosci. Meth. 14: 149-167). In addition, the plus maze may be used to examine the behavioural response to stress, as exposure induces the release of corticosterone File, S E, Pellow, S (1987) Behavioural pharmacology of minor tranquillisers. J. Pharmacol. Exp. Ther. 35: 265-290). The elevated plus maze is based on an approach conflict model and has been validated as a model of anxiety in the rat (Tomkins D M (1990) The behavioural effects of anxiogenic agents in rodents. PhD thesis. Postgraduate studies in Pharmacology. University of Bradford).
# (§3) Two studies were carried out using the elevated plus maze method and the aim of the studies was to assess the ability of a Isomer A for its ability to produce an anxiolytic effect in female hooded-Lister rats.
# (§4) A total of 90 female hooded-Lister rats were used as subjects for study 1. Female hooded-Lister rats (Harlan, UK) were obtained as adults and weighed approximately 200-220 g at the start of the study. Subjects were housed in routinely used home cages in groups of 5 per cage. Home cages measured 59×35×24 cm. Rats were maintained under standard laboratory conditions on a 12:12 hour light/dark cycle (lights on at 08:00 h). Experimental procedures were performed in the light phase. Laboratory rooms were temperature controlled at 21±2° C. and humidity remained at 40-50% throughout the study. Rats were tested in the naïve state i.e. they had no exposure to the plus maze prior to testing, although they were handled and received sham injections prior to testing.
# Isomer A (1.0-30.0 mg/kg) and chlordiazepoxide (1.0-5.0 mg/kg) were tested. Isomer A was dissolved in water and administered via the oral route 30 minutes prior to testing. Chlordiazepoxide (CDP) was dissolved in saline and administered via the intraperitoneal route 30 min prior to testing.
# (§5) The maze consisted of a +shaped maze, made of Perspex, with two open arms (30×5 cm) and two closed arms (30×5 cm). The maze was arranged so that like arms are opposing. The closed arms were surrounded by matt black walls on all sides (10 cm in height). The maze was elevated to a height of 50 cm, and the surface was covered with a removable rubber matting. The behaviour of drug or vehicle-treated rats was monitored by means of a video camera attached to a TV monitor and video recorder. The rat was placed in the centre square and behaviour monitored over a 10 min test period. […] The maze was cleaned between tests and rats were placed on the maze in a randomised manner in order to minimise the effects of familiar cage mate odours.
# (§6) Behaviour was recorded and the following parameters were analysed from the video tapes using the Hindsight® program for ethological analysis of behaviour: time spent on, and entries into, the open and closed arms, time spent in the centre square and rearing on the open and closed arms.
# (§7) Elevated plus maze data were analysed by a one way ANOVA, followed by Dunnett's t test to assess drug effects on number of entries into the open and closed arms, length of time spent, and number of rears in, open and closed arms, and time spent in the centre square compared with vehicle.
# [2] = system: female hooded-Lister rats; experiment: Elevated plus maze, Study 2; type: in vivo, rat
# Description: as §1, §2, §3
# as §4, with “60” for “90”, “B.” for “1.”, “(Charles River,” for “(Harlan,”, “220-250” for “200-220”
# Isomer A (0.1-2.5 mg/kg) and chlordiazepoxide (2.5 mg/kg) were tested. Isomer A was dissolved in water and administered via the oral route (p.o.) 30 minutes prior to testing. Chlordiazepoxide (CDP) was dissolved in saline and administered via the intraperitoneal route (i.p.) 30 min prior to testing.
# as §5, §6, §7
# [3] = Isomer A 1.0-10 mg/kg p.o., 10 min trial, ANOVA
# [4] = Isomer A 1.0-10 mg/kg p.o., 10 minute trial, ANOVA
# [5] = Isomer A 1.0-10 mg/kg p.o., 10 minute trial, overall ANOVA
# [6] = CDP 2.5 mg/kg i.p. and Isomer A 0.1-2.5 mg/kg p.o., 10 min trial, overall ANOVA
# [7] = CDP 1.0-5.0 mg/kg i.p., 10 min trial, ANOVA
smiles,measurement,setting,value
"COc1cc2c(cc1OC)[C@@H]1C[C@@H](O)[C@H](CC(C)C)CN1CC2 (single isomer, unassigned) [Isomer A]",total open arm entries,"[1]; Isomer A 1 mg/kg p.o., 10 minute trial",trend towards an increase
same,magnitude of the increase in time spent on the open arms relative to CDP at 2.5 mg/kg,"[1]; Isomer A 1 mg/kg p.o., Study 1",comparable
same,time spent on the open arms,"[1]; Isomer A 1 mg/kg p.o., post-hoc vs vehicle (p<0.05)",significant increase
same,overall activity levels on the elevated plus maze,"[1]; Isomer A 30 mg/kg p.o., animals remained stationary for much of the 10 minute test, behaviour not scored",markedly reduced
same,time spent in the centre square,[1]; [3],no significant effect
same,time spent on the closed arms,[1]; [3],no significant effect
same,number of rears,[1]; [4],no significant effect
same,total closed arm entries,[1]; [4],no significant effect
same,time spent on the open arms,[1]; [5],overall significant effect
same,total open arm entries,[1]; [5],significant effect
same,anxiolytic effect on the elevated plus maze,"[1]; Isomer A, Study 1, some measures of behaviour",some anxiolytic potential
same,time spent on the closed arms,"[1]; Isomer A, most marked at 1.0 mg/kg p.o., failed to reach statistical significance",trend towards a reduction
same,number of rears,[2]; [6],no overall significant effect
same,time spent in the centre square,[2]; [6],no overall significant effect
same,time spent on the closed arms,[2]; [6],overall significant effect
same,time spent on the open arms,[2]; [6],overall significant effect
same,total closed arm entries,[2]; [6],no overall significant effect
same,total open arm entries,[2]; [6],no overall significant effect
same,time in the centre square,"[2]; Isomer A 0.1 mg/kg p.o., effect failed to achieve statistical significance",reduced
same,time spent on the closed arms,"[2]; Isomer A 1.0 mg/kg p.o., post-hoc vs vehicle (p<0.05)",significant reduction
same,magnitude of the increase in time spent on the open arms relative to CDP at 2.5 mg/kg,"[2]; Isomer A 0.1-2.5 mg/kg p.o., Study 2",comparable
same,time spent on the open arms,"[2]; Isomer A, all doses 0.1-2.5 mg/kg p.o., post-hoc vs vehicle (p<0.05-p<0.001)",significant increase
same,anxiolytic effect on the elevated plus maze,"[2]; Isomer A, all doses tested 0.1-2.5 mg/kg p.o., Study 2, certain measures of behaviour",anxiolytic potential
"CNC1=Nc2ccc(Cl)cc2C(c2ccccc2)=[N+]([O-])C1 [CDP, chlordiazepoxide, reference compound]",number of rears,[1]; [7],no significant effect
same,time spent on the closed arms,[1]; [7],no significant effect
same,total closed arm entries,"[1]; CDP 1.0-5.0 mg/kg i.p., 10 minute trial, ANOVA",no significant effect
